Measured values from ChEMBL document CHEMBL1201861, “Genomics of Drug Sensitity in Cancer screening data, Wellcome Trust Sanger Institute”.

Tests used:
Assay in all cases: cells
Type in all cases: functional, cell-based, Homo sapiens
[1] = test system: HCC2218;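 further: cell viability assay read-out, with IC50 given as the concentration that inhibits growth of the cell line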
Description: SANGER: Inhibition of human HCC2218 cell growth in a cell viability assay.

[2] = test system: OMC-1;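 further: growth inhibition of the OMC-1 cell line, measured by a cell viability assay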
Description: SANGER: Inhibition of human OMC-1 cell growth in a cell viability assay.

[3] = test system: RPMI-8866
Description: SANGER: Inhibition of human RPMI-8866 cell growth in a cell viability assay.

[4] = test system: L-428
Description: SANGER: Inhibition of human L-428 cell growth in a cell viability assay.

[5] = test system: SF-268;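 further: growth inhibition of SF-268 cells determined with a cell viability assay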
Description: SANGER: Inhibition of human SF268 cell growth in a cell viability assay.

[6] = test system: NCI-H1838;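 further: growth inhibition of NCI-H1838 cells, determined with a cell viability readout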
Description: SANGER: Inhibition of human NCI-H1838 cell growth in a cell viability assay.

[7] = test system: Becker;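 further: growth inhibition of Becker cells, read out with a cell viability assay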
Description: SANGER: Inhibition of human Becker cell growth in a cell viability assay.

[8] = test system: KU812 cell line;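 further: growth inhibition of KU812 cells, read out with a cell viability assay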
Description: SANGER: Inhibition of human KU812 cell growth in a cell viability assay.

[9] = test system: J-RT3-T3-5;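 further: cell viability assay measuring growth inhibition of human J-RT3-T3-5 cells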
Description: SANGER: Inhibition of human J-RT3-T3-5 cell growth in a cell viability assay.

[10] = test system: NCI-H82;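 further: growth inhibition of NCI-H82 cells, measured with a cell viability readout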
Description: SANGER: Inhibition of human NCI-H82 cell growth in a cell viability assay.

[11] = test system: LNCaP-Clone-FGC
Description: SANGER: Inhibition of human LNCaP-Clone-FGC cell growth in a cell viability assay.

[12] = test system: RCC10RGB;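 further: growth inhibition of human RCC10RGB cells, read out by a cell viability assay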
Description: SANGER: Inhibition of human RCC10RGB cell growth in a cell viability assay.

[13] = test system: C2BBe1;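 further: growth inhibition of C2BBe1 cells, read out through a viability assay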
Description: SANGER: Inhibition of human C2BBe1 cell growth in a cell viability assay.

[14] = test system: MN-60;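 further: growth inhibition of the MN-60 cell line, determined with a cell viability assay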
Description: SANGER: Inhibition of human MN-60 cell growth in a cell viability assay.

[15] = test system: no-10;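 further: growth inhibition of no-10 cells, read out with a cell viability assay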
Description: SANGER: Inhibition of human no-10 cell growth in a cell viability assay.

[16] = test system: KLE;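 further: growth inhibition of human KLE cells, read out with a cell viability assay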
Description: SANGER: Inhibition of human KLE cell growth in a cell viability assay.

[17] = test system: NH-12;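 further: growth inhibition of NH-12 cells, read out with a cell viability assay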
Description: SANGER: Inhibition of human NH-12 cell growth in a cell viability assay.

[18] = test system: DSH1;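 further: growth inhibition of human DSH1 cells, measured with a cell viability readout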
Description: SANGER: Inhibition of human DSH1 cell growth in a cell viability assay.

[19] = test system: IST-MES1;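 further: growth inhibition of IST-MES1 cells, measured with a cell viability assay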
Description: SANGER: Inhibition of human IST-MES1 cell growth in a cell viability assay.

[20] = test system: DU-4475
Description: SANGER: Inhibition of human DU-4475 cell growth in a cell viability assay.

[21] = test system: OVCAR-4;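 further: growth inhibition of human OVCAR-4 cells, measured with a cell viability assay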
Description: SANGER: Inhibition of human OVCAR-4 cell growth in a cell viability assay.

[22] = test system: QIMR-WIL;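 further: growth inhibition of QIMR-WIL cells, read out with a cell viability assay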
Description: SANGER: Inhibition of human QIMR-WIL cell growth in a cell viability assay.

[23] = test system: KP-N-YS;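 further: cell viability assay measuring inhibition of cell line growth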
Description: SANGER: Inhibition of human KP-N-YS cell growth in a cell viability assay.

[24] = test system: MMAC-SF;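 further: growth inhibition of human MMAC-SF cells, read out with a cell viability assay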
Description: SANGER: Inhibition of human MMAC-SF cell growth in a cell viability assay.

[25] = test system: EW-13;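 further: growth inhibition of EW-13 cells, read out with a cell viability assay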
Description: SANGER: Inhibition of human EW-13 cell growth in a cell viability assay.

[26] = test system: COLO-824
Description: SANGER: Inhibition of human COLO-824 cell growth in a cell viability assay.

[27] = test system: DEL;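 further: growth inhibition of the human DEL cell line, read out with a cell viability assay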
Description: SANGER: Inhibition of human DEL cell growth in a cell viability assay.

[28] = test system: BB49-HNC;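 further: cell viability assay read-out, reported as inhibition of BB49-HNC cell growth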
Description: SANGER: Inhibition of human BB49-HNC cell growth in a cell viability assay.

[29] = test system: SNU1; conditions: Homo sapiens, SNU1;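 further: growth inhibition of human NCI-SNU-1 cells, measured with a cell viability assay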
Description: SANGER: Inhibition of human NCI-SNU-1 cell growth in a cell viability assay.

[30] = test system: NB13;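 further: cell viability readout measuring growth inhibition of human NB13 cells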
Description: SANGER: Inhibition of human NB13 cell growth in a cell viability assay.

[31] = test system: LAMA-84;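 further: growth inhibition of LAMA-84 cells, read out with a cell viability assay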
Description: SANGER: Inhibition of human LAMA-84 cell growth in a cell viability assay.

[32] = test system: NCI-H226;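 further: cell viability read-out used to gauge growth inhibition of the cells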
Description: SANGER: Inhibition of human NCI-H226 cell growth in a cell viability assay.

[33] = test system: GI-1;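 further: growth inhibition of human GI-1 cells, measured with a cell viability readout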
Description: SANGER: Inhibition of human GI-1 cell growth in a cell viability assay.

[34] = test system: MZ1-PC;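 further: cell viability assay measuring growth inhibition of human MZ1-PC cells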
Description: SANGER: Inhibition of human MZ1-PC cell growth in a cell viability assay.

[35] = test system: HC-1;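 further: growth inhibition of HC-1 cells measured by a cell viability assay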
Description: SANGER: Inhibition of human HC-1 cell growth in a cell viability assay.

[36] = test system: GOTO;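 further: growth inhibition of GOTO cells, read out by a cell viability assay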
Description: SANGER: Inhibition of human GOTO cell growth in a cell viability assay.

[37] = test system: NCI-H2126;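 further: growth inhibition of the cancer cell line, determined with a cell viability readout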
Description: SANGER: Inhibition of human NCI-H2126 cell growth in a cell viability assay.

[38] = test system: TE-6;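 further: growth inhibition of TE-6 cells, read out with a cell viability assay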
Description: SANGER: Inhibition of human TE-6 cell growth in a cell viability assay.

[39] = test system: TGBC24TKB;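 further: growth inhibition of human TGBC24TKB cells, read out with a cell viability assay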
Description: SANGER: Inhibition of human TGBC24TKB cell growth in a cell viability assay.

[40] = test system: SK-LMS-1;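 further: growth inhibition of human SK-LMS-1 cells, read out with a cell viability assay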
Description: SANGER: Inhibition of human SK-LMS-1 cell growth in a cell viability assay.

[41] = test system: IST-SL1;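 further: growth inhibition of human IST-SL1 cells, read out with a cell viability assay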
Description: SANGER: Inhibition of human IST-SL1 cell growth in a cell viability assay.

[42] = test system: NKM-1;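 further: growth inhibition of NKM-1 cells, read out with a cell viability assay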
Description: SANGER: Inhibition of human NKM-1 cell growth in a cell viability assay.

[43] = test system: K5
Description: SANGER: Inhibition of human K5 cell growth in a cell viability assay.

[44] = test system: NCI-H510A;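 further: growth inhibition of NCI-H510A cells, read out with a cell viability assay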
Description: SANGER: Inhibition of human NCI-H510A cell growth in a cell viability assay.

[45] = test system: SNB-75;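 further: cell viability assay measuring growth inhibition of human SNB-75 cells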
Description: SANGER: Inhibition of human SNB75 cell growth in a cell viability assay.

[46] = test system: ONS-76;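 further: growth inhibition of human ONS-76 cells, read out with a cell viability assay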
Description: SANGER: Inhibition of human ONS-76 cell growth in a cell viability assay.

[47] = test system: GCIY;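 further: growth inhibition of the human GCIY cell line, read out by a cell viability assay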
Description: SANGER: Inhibition of human GCIY cell growth in a cell viability assay.

[48] = test system: CCRF-CEM;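 further: inhibition of CCRF-CEM cell growth, measured by a cell viability assay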
Description: SANGER: Inhibition of human CCRF-CEM cell growth in a cell viability assay.

[49] = test system: NCI-H1355;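 further: growth inhibition of human NCI-H1355 cells, read out by a cell viability assay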
Description: SANGER: Inhibition of human NCI-H1355 cell growth in a cell viability assay.

## N#Cc1c(O)c2c(-c3ccc(-c4ccccc4O)cc3)csc2[nH]c1=O
[1]; Homo sapiens, HCC2218
  IC50: 0.342 µM
[2]; Homo sapiens, OMC-1
  IC50: > 1.02 µM
[3]; Homo sapiens, RPMI-8866
  IC50: > 1.02 µM
[4]; Homo sapiens, L-428
  IC50: 0.225 µM
[5]; Homo sapiens, SF-268
  IC50: > 1.02 µM
[6]; Homo sapiens, NCI-H1838
  IC50: > 1.02 µM
[7]; Homo sapiens, Becker
  IC50: > 1.02 µM
[8]; Homo sapiens, KU812
  IC50: > 1.02 µM
[9]; Homo sapiens, J-RT3-T3-5
  IC50: 0.378 µM
[10]; Homo sapiens, NCI-H82
  IC50: > 1.02 µM
[11]; Homo sapiens, LNCaP-Clone-FGC
  IC50: 0.547 µM
[12]; Homo sapiens, RCC10RGB
  IC50: > 1.02 µM
[13]; Homo sapiens, C2BBe1
  IC50: > 1.02 µM
[14]; Homo sapiens, MN-60
  IC50: 0.346 µM
[15]; Homo sapiens
  IC50: > 1.02 µM
[16]; Homo sapiens, KLE
  IC50: > 1.02 µM
[17]; Homo sapiens, NH-12
  IC50: 0.0369 µM
[18]; Homo sapiens, DSH1
  IC50: > 1.02 µM
[19]; Homo sapiens, IST-MES1
  IC50: > 1.02 µM
[20]; Homo sapiens, DU-4475
  IC50: > 1.02 µM
[21]; Homo sapiens, OVCAR-4
  IC50: > 1.02 µM
[22]; Homo sapiens, QIMR-WIL
  IC50: 0.0364 µM
[23]; Homo sapiens, KP-N-YS
  IC50: > 1.02 µM
[24]; Homo sapiens, MMAC-SF
  IC50: > 1.02 µM
[25]; Homo sapiens, EW-13
  IC50: > 1.02 µM
[26]; Homo sapiens, COLO-824
  IC50: 0.328 µM
[27]; Homo sapiens, DEL
  IC50: 0.228 µM
[28]; Homo sapiens, BB49-HNC
  IC50: > 1.02 µM
[29]
  IC50: 0.311 µM
[30]; Homo sapiens, NB13
  IC50: > 1.02 µM
[31]; Homo sapiens, LAMA-84
  IC50: 0.308 µM
[32]; Homo sapiens, NCI-H226
  IC50: 0.407 µM
[33]; Homo sapiens, GI-1
  IC50: > 1.02 µM
[34]; Homo sapiens, MZ1-PC
  IC50: > 1.02 µM
[35]; Homo sapiens, HC-1
  IC50: 0.0831 µM
[36]; Homo sapiens, GOTO
  IC50: 0.395 µM
[37]; Homo sapiens, NCI-H2126
  IC50: > 1.02 µM
[38]; Homo sapiens, TE-6
  IC50: > 1.02 µM
[39]; Homo sapiens, TGBC24TKB
  IC50: > 1.02 µM
[40]; Homo sapiens, SK-LMS-1
  IC50: > 1.02 µM
[41]; Homo sapiens, IST-SL1
  IC50: > 1.02 µM
[42]; Homo sapiens, NKM-1
  IC50: > 1.02 µM
[43]; Homo sapiens, K5
  IC50: > 1.02 µM
[44]; Homo sapiens, NCI-H510A
  IC50: 0.692 µM
[45]; Homo sapiens, SNB-75
  IC50: > 1.02 µM
[46]; Homo sapiens, ONS-76
  IC50: > 1.02 µM
[47]; Homo sapiens, GCIY
  IC50: > 1.02 µM
[48]; Homo sapiens, CCRF-CEM
  IC50: 0.146 µM
[49]; Homo sapiens, NCI-H1355
  IC50: > 1.02 µM

## CS(=O)(=O)c1ccc(C(=O)Nc2ccc(Cl)c(-c3ccccn3)c2)c(Cl)c1 [VISMODEGIB]
[2]; Homo sapiens, OMC-1
  IC50: > 10 µM
[3]; Homo sapiens, RPMI-8866
  IC50: > 10 µM
[4]; Homo sapiens, L-428
  IC50: > 10 µM
[5]; Homo sapiens, SF-268
  IC50: > 10 µM
[6]; Homo sapiens, NCI-H1838
  IC50: > 10 µM
[7]; Homo sapiens, Becker
  IC50: > 10 µM
[9]; Homo sapiens, J-RT3-T3-5
  IC50: > 10 µM
[10]; Homo sapiens, NCI-H82
  IC50: > 10 µM
[11]; Homo sapiens, LNCaP-Clone-FGC
  IC50: > 10 µM
[12]; Homo sapiens, RCC10RGB
  IC50: > 10 µM
[13]; Homo sapiens, C2BBe1
  IC50: > 10 µM
[14]; Homo sapiens, MN-60
  IC50: > 10 µM
[15]; Homo sapiens
  IC50: > 10 µM
[16]; Homo sapiens, KLE
  IC50: > 10 µM
[17]; Homo sapiens, NH-12
  IC50: > 10 µM
[18]; Homo sapiens, DSH1
  IC50: > 10 µM
[19]; Homo sapiens, IST-MES1
  IC50: > 10 µM
[21]; Homo sapiens, OVCAR-4
  IC50: > 10 µM
[22]; Homo sapiens, QIMR-WIL
  IC50: > 10 µM
[23]; Homo sapiens, KP-N-YS
  IC50: > 10 µM
[24]; Homo sapiens, MMAC-SF
  IC50: > 10 µM
[25]; Homo sapiens, EW-13
  IC50: > 10 µM
[26]; Homo sapiens, COLO-824
  IC50: > 10 µM
[27]; Homo sapiens, DEL
  IC50: > 10 µM
[28]; Homo sapiens, BB49-HNC
  IC50: > 10 µM
[29]
  IC50: > 10 µM
[30]; Homo sapiens, NB13
  IC50: > 10 µM
[31]; Homo sapiens, LAMA-84
  IC50: > 10 µM
[32]; Homo sapiens, NCI-H226
  IC50: > 10 µM
[33]; Homo sapiens, GI-1
  IC50: > 10 µM
[34]; Homo sapiens, MZ1-PC
  IC50: > 10 µM
[35]; Homo sapiens, HC-1
  IC50: > 10 µM
[36]; Homo sapiens, GOTO
  IC50: > 10 µM
[37]; Homo sapiens, NCI-H2126
  IC50: > 10 µM
[38]; Homo sapiens, TE-6
  IC50: > 10 µM
[39]; Homo sapiens, TGBC24TKB
  IC50: > 10 µM
[40]; Homo sapiens, SK-LMS-1
  IC50: > 10 µM
[41]; Homo sapiens, IST-SL1
  IC50: > 10 µM
[42]; Homo sapiens, NKM-1
  IC50: > 10 µM
[43]; Homo sapiens, K5
  IC50: > 10 µM
[44]; Homo sapiens, NCI-H510A
  IC50: > 10 µM
[45]; Homo sapiens, SNB-75
  IC50: > 10 µM
[46]; Homo sapiens, ONS-76
  IC50: > 10 µM
[47]; Homo sapiens, GCIY
  IC50: > 10 µM
[48]; Homo sapiens, CCRF-CEM
  IC50: > 10 µM
[49]; Homo sapiens, NCI-H1355
  IC50: > 10 µM

## CISPLATIN
[1]; hcc2218
  IC50: 398 µM
[2]; omc-1
  IC50: 12.6 µM
[3]; rpmi-8866
  IC50: 13.2 µM
[4]; l-428
  IC50: 18.9 µM
[5]; sf-268
  IC50: 5.12 µM
[6]; nci-h1838
  IC50: 281 µM
[7]; becker
  IC50: 17.8 µM
[8]; ku812
  IC50: 49 µM
[9]; j-rt3-t3-5
  IC50: 148 µM
[10]; nci-h82
  IC50: 74.9 µM
[11]; lncap-clone-fgc
  IC50: 515 µM
[12]; rcc10rgb
  IC50: 917 µM
[13]; c2bbe1
  IC50: 97 µM
[14]; mn-60
  IC50: 58.4 µM
[15]
  IC50: 77.8 µM
[16]; kle
  IC50: 137 µM
[17]; nh-12
  IC50: 13.2 µM
[18]; dsh1
  IC50: 145 µM
[19]; ist-mes1
  IC50: 19.7 µM
[20]; du-4475
  IC50: 111 µM
[21]; ovcar-4
  IC50: 22.3 µM
[22]; qimr-wil
  IC50: 29.3 µM
[23]; kp-n-ys
  IC50: 811 µM
[24]; mmac-sf
  IC50: 531 µM
[25]; ew-13
  IC50: 4.17 µM
[26]; colo-824
  IC50: 114 µM
[27]; del
  IC50: 3.67 µM
[28]; bb49-hnc
  IC50: 48.2 µM
[30]; nb13
  IC50: 40.1 µM
[31]; lama-84
  IC50: 10.8 µM
[32]; nci-h226
  IC50: 41.5 µM
[33]; gi-1
  IC50: 2.06 µM
[34]; mz1-pc
  IC50: 29.9 µM
[35]; hc-1
  IC50: 9.5 µM
[36]; goto
  IC50: 3.09 µM
[37]; nci-h2126
  IC50: 221 µM
[38]; te-6
  IC50: 57.3 µM
[39]; tgbc24tkb
  IC50: 39.8 µM
[40]; sk-lms-1
  IC50: 814 µM
[41]; ist-sl1
  IC50: 70.6 µM
[42]; nkm-1
  IC50: 6.04 µM
[43]; k5
  IC50: 3.73 µM
[44]; nci-h510a
  IC50: 3.1 µM
[45]; snb-75
  IC50: 48 µM
[46]; ons-76
  IC50: 3.95 µM
[47]; gciy
  IC50: 18.5 µM
[48]; ccrf-cem
  IC50: 96 µM
[49]; nci-h1355
  IC50: 6.63 µM
